Experimental data from ChEMBL document CHEMBL1201862, “PubChem BioAssay data set” (2004).
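Interpolation was linear, between the two tested concentrations surrounding the appropriate level; five concentrations were tested over 48 hours in 96-well plates. GI50 marks 50% less growth.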 The source made the active and inactive calls. Rule as the data show it: active = GI50 up to about 1.1 µM and inactive = higher.

Key:
Assay in all cases: DTP human tumour cell line panel, 48 h
DLD-1 = system: DLD-1
DMS-114 = system: DMS-114
DMS-273 = system: DMS-273
KM-20L2 = system: KM-20L2
LXFL 529 = system: LXFL 529
M19-MEL = system: M19-MEL
SNB-78 = system: SNB-78
XF498 = system: XF498
RXF 631 = system: RXF 631

SMILES	GI50 (DLD-1)	GI50 (DMS-114)	GI50 (DMS-273)	GI50 (KM-20L2)	GI50 (LXFL 529)	GI50 (M19-MEL)	GI50 (SNB-78)	GI50 (XF498)	GI50 (RXF 631)
COC(=O)C12OCC34C(CC5C(C)=CC(=O)C(O)C5(C)C3C(O)C1O)OC(=O)C(OC(=O)CC(C)C)C24 (centres undefined)	0.00149 µM (active)	0.000659 µM (active)	0.000401 µM (active)	0.00288 µM (active)	< 0.0255 µM (active)	0.00134 µM (active)	0.00346 µM (active)	0.00116 µM (active)	–
O=c1[c-](-c2ccccc2)[se]c(-c2ccccc2)[n+]1-c1ccccc1	2 µM (inactive)	4.69 µM (inactive)	19.1 µM (inactive)	–	13.5 µM (inactive)	7.59 µM (inactive)	3.81 µM (inactive)	–	13.6 µM (inactive)
CSc1s[s+]c(SC)c1[O-]	16.5 µM (inactive)	17.5 µM (inactive)	27.4 µM (inactive)	80.7 µM (inactive)	18.7 µM (inactive)	15.5 µM (inactive)	55.1 µM (inactive)	45.8 µM (inactive)	19.2 µM (inactive)
c1ccc2c(c1)OCCc1cn[nH]c1-2	> 100 µM (inactive)	99.1 µM (inactive)	> 100 µM (inactive)	> 100 µM (inactive)	–	–	> 100 µM (inactive)	52.2 µM (inactive)	–
CC(=O)Oc1cc2c(cc1OC(C)=O)OCC(c1ccccc1)C2 (centres undefined)	9.31 µM (inactive)	6.81 µM (inactive)	34.2 µM (inactive)	34.7 µM (inactive)	–	14.9 µM (inactive)	39.2 µM (inactive)	12.4 µM (inactive)	–
C[S+](C)C1(c2ccccc2)C(=O)c2ccccc2C1=O	> 100 µM (inactive)	> 100 µM (inactive)	> 100 µM (inactive)	> 100 µM (inactive)	> 100 µM (inactive)	> 100 µM (inactive)	> 100 µM (inactive)	32.4 µM (inactive)	–
CC(C)N(C(=O)C12C3C4C1C1C2C3C41C(=O)O)C(C)C (centres undefined)	> 100 µM (inactive)	> 100 µM (inactive)	> 100 µM (inactive)	> 100 µM (inactive)	> 100 µM (inactive)	–	–	–	–
CC(=O)Nc1ccc(-c2nnc(SCC(=O)Nc3ccccc3Cl)o2)cc1	> 100 µM (inactive)	> 100 µM (inactive)	> 100 µM (inactive)	> 100 µM (inactive)	> 100 µM (inactive)	> 100 µM (inactive)	> 100 µM (inactive)	–	–
O=C(Nc1ccc(Cl)cc1Cl)OC(Cn1cncn1)c1ccc(Cl)cc1Cl (centres undefined)	18.5 µM (inactive)	16 µM (inactive)	17.4 µM (inactive)	16.5 µM (inactive)	16.2 µM (inactive)	17.1 µM (inactive)	15.6 µM (inactive)	14.7 µM (inactive)	18.2 µM (inactive)
CO[C@@H]1[C@H](OC(=O)NC(=O)CCl)CC[C@]2(CO2)[C@H]1[C@@]1(C)O[C@@H]1CC=C(C)C [O-CHLOROACETYLCARBAMOYLFUMAGILLOL]	8.83 µM (inactive)	7.03 µM (inactive)	7.11 µM (inactive)	16.6 µM (inactive)	1.78 µM (inactive)	6.49 µM (inactive)	> 10 µM (inactive)	6.35 µM (inactive)	1.67 µM (inactive)
N#CCc1ccc(/C(C#N)=C2/OC(=N)C(c3ccc(CC#N)cc3)C2=O)cc1 (centres undefined)	> 100 µM (inactive)	> 100 µM (inactive)	> 100 µM (inactive)	> 100 µM (inactive)	> 100 µM (inactive)	> 100 µM (inactive)	> 100 µM (inactive)	> 100 µM (inactive)	> 100 µM (inactive)
CSc1nc(CO)c(CO)n1C	> 100 µM (inactive)	> 100 µM (inactive)	> 100 µM (inactive)	> 100 µM (inactive)	–	> 100 µM (inactive)	> 100 µM (inactive)	> 100 µM (inactive)	–
NC1=NN(c2ccccc2)C(=O)C1/C(=N\NC(=O)c1cc2ccccc2cc1O)C(=O)Nc1ccc(Cl)c(Cl)c1 (centres undefined)	30.5 µM (inactive)	25.2 µM (inactive)	11.6 µM (inactive)	32.5 µM (inactive)	34.4 µM (inactive)	–	23.8 µM (inactive)	25.1 µM (inactive)	–
CC(C)(C)c1cc(CCC(=O)Nc2ccc(Cl)cc2)nc(NC#N)n1	> 100 µM (inactive)	–	> 100 µM (inactive)	> 100 µM (inactive)	> 100 µM (inactive)	> 100 µM (inactive)	> 100 µM (inactive)	–	–
Cc1cc2c(cc1C)[n+]([O-])c(C(=O)C/C(=N/NC(=O)CC#N)C(=O)Nc1ccccc1C(F)(F)F)c(C)[n+]2[O-]	–	28.6 µM (inactive)	53.6 µM (inactive)	37.5 µM (inactive)	45.6 µM (inactive)	43.2 µM (inactive)	2.59 µM (inactive)	82.2 µM (inactive)	16.9 µM (inactive)
COC1/C=C\C=C(/C)C(=O)NC2=CC(=O)C(NCCCl)=C(CC(C)CC(OC)C(O)C(C)/C=C(/C)C1OC(N)=O)C2=O (centres undefined)	0.0266 µM (active)	0.0296 µM (active)	0.053 µM (active)	0.0134 µM (active)	0.0298 µM (active)	0.0366 µM (active)	0.655 µM (active)	0.659 µM (active)	–
C[N+](C)(C)CC(=O)N/N=C/c1oc(-c2cccc([N+](=O)[O-])c2)c(-c2cccc([N+](=O)[O-])c2)c1[N+](=O)[O-]	64.4 µM (inactive)	47.3 µM (inactive)	–	> 100 µM (inactive)	–	38.5 µM (inactive)	–	–	49.7 µM (inactive)
Cc1cccc2nc3cccc(C(=O)NCCN(C)C)c3nc12	0.444 µM (active)	1.06 µM (active)	0.42 µM (active)	–	–	0.675 µM (active)	0.802 µM (active)	–	–
Cc1ccc(C(=O)OC(C)C)cc1/N=N/N(C)C	> 100 µM (inactive)	–	56.5 µM (inactive)	55.5 µM (inactive)	66.5 µM (inactive)	97.7 µM (inactive)	55.3 µM (inactive)	–	–
COC(=O)C1=C(c2ccc3c(c2)OCO3)O[C@H](c2ccc3c(c2)OCO3)[C@H]1COC(C)=O	35.7 µM (inactive)	57.9 µM (inactive)	56.2 µM (inactive)	71.1 µM (inactive)	32.3 µM (inactive)	33.3 µM (inactive)	66.1 µM (inactive)	41.8 µM (inactive)	–
NC1=NS(=O)(=O)Nc2[nH]c(-c3ccccc3)nc21	> 100 µM (inactive)	> 100 µM (inactive)	> 100 µM (inactive)	> 100 µM (inactive)	> 100 µM (inactive)	> 100 µM (inactive)	> 100 µM (inactive)	> 100 µM (inactive)	–
CCOC(=O)Nc1cc2nnc(-c3ccccc3)nc2c(N)n1	18.6 µM (inactive)	27.6 µM (inactive)	7.36 µM (inactive)	4.25 µM (inactive)	32.1 µM (inactive)	4.35 µM (inactive)	–	31.4 µM (inactive)	–
